Results from ChEMBL document CHEMBL2034861, “Tyrosyl-DNA phosphodiesterase 1 inhibitor from an anamorphic fungus” (J Nat Prod, 2012).

Assays:
[1] = target: Tyrosyl-DNA phosphodiesterase 1 (Homo sapiens, UniProt Q9NUW8); test: Inhibition of human Tdp1 using 3'-phosphate-(4-methylumbelliferone)-thymidine as substrate after 180 mins by spectrophotometry
[2] = tested on: HeLa; test: Antiproliferative activity against human HeLa cells after 48 hrs by WST-8 assay; format: functional, cell-based
[3] = tested on: NCI-H2052; test: Antiproliferative activity against human NCI-H2052 cells after 48 hrs by WST-8 assay; format: functional, cell-based; settings: NCI-H2052, 48 h
[4] = tested on: HT-29; test: Antiproliferative activity against human HT-29 cells after 48 hrs by WST-8 assay; format: functional, cell-based; settings: HT-29, 48 h
[5] = Antiproliferative activity against human NAMALWA cells after 48 hrs by WST-8 assay; format: functional, cell-based; settings: NAMALVA
[6] = tested on: HT-29; test: Antitumor activity against human HT-29 cells xenografted in nude mouse KSN assessed as reduction in tumor volume at 2 mg/kg, ip qd administered every other day from day 7 post-tumor injection for 19 days measured on day 21 relative to vehicle treated control; format: functional; settings: route intraperitoneal
[7] = tested on: Mus musculus; test: Toxicity in nude mouse KSN assessed as weight loss at 2 mg/kg, ip qd administered every other day for 19 days measured on day 21 relative to vehicle treated control; format: organism-based; design: dose 2 mg/kg, route intraperitoneal; settings: in vivo, 456 h
[8] = tested on: Mus musculus; test: Toxicity in nude mouse KSN assessed as adverse effects at 2 mg/kg, ip qd administered every other day for 19 days measured on day 21 relative to vehicle treated control; format: organism-based; design: dose 2 mg/kg, route intraperitoneal; settings: in vivo, 456 h

Sequence of Tyrosyl-DNA phosphodiesterase 1 (Q9NUW8 whole entry): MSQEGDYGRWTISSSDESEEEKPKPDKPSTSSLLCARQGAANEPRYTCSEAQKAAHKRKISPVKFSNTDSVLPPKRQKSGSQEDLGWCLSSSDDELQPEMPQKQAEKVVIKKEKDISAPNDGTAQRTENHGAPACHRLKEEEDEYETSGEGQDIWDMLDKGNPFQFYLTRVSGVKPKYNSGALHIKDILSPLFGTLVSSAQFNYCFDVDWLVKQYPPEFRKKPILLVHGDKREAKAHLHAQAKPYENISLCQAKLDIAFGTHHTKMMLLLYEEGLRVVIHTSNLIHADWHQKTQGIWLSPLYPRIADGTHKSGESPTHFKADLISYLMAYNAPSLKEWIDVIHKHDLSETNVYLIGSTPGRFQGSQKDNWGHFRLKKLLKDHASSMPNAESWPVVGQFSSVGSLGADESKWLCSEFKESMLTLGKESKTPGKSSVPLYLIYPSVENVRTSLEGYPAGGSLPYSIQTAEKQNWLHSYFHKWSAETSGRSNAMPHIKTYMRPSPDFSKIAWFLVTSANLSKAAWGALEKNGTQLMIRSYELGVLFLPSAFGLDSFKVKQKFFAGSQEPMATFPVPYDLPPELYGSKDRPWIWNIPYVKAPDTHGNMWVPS

Q: For `CCCCC(C)C1=CC(=O)C2=C(O[C@]3(C)CC[C@H]4O[C@@H]([C@@](C)(O)C(=O)O)CC[C@]4(C)[C@H]3C2)C1=O` (stereo partly drawn), which IC50 [1] is on record?
A: Its IC50 is 18 µM.

Q: And the IC50 [2]?
A: The IC50 was 9.2 µM.

Q: What about the IC50 [3] of the same molecule?
A: Its IC50 is 13 µM.

Q: And the IC50 [4]?
A: Its IC50 is 4 µM.

Q: What about the IC50 [5] of the same molecule?
A: Its IC50 is 3.5 µM.

Q: And the T/C [6]?
A: Its T/C is 0.51.

Q: What about the Activity [7] of the same molecule?
A: The Activity was “Non-toxic”.

Q: And the Activity [8]?
A: The Activity was “Non-toxic”.
